Test results from patent publication US10118947B2, “Modulation of structured polypeptide specificity” (BICYCLE THERAPEUTICS LIMITED, priority 2013, dated 2018).
Like-named read-outs stand apart in the source and are kept apart here. Numbered stars: 1 amine (or outer) side, 2 acyl side, 3 side chain; on linkers, the order of the positions; unused ones are H or OH. Bridge positions count the residues as written; N and C are the ends. Square brackets hold non-standard residues; d marks the D form. Peptide text beside a SMILES is read from it. Pro(trans-4-F) = O=C(O)[C@@H]1C[C@@H](F)CN1; 1Nal = N[C@@H](Cc1cccc2ccccc12)C(=O)O; His(τ-Me) = Cn1cnc(C[C@H](N)C(=O)O)c1; TBMB = c1c(C[*:1])cc(C[*:3])cc1C[*:2]; 4Pal = N[C@@H](Cc1ccncc1)C(=O)O; Agp = N=C(N)NC[C@H](N)C(=O)O; Tle = CC(C)(C)[C@H](N)C(=O)O

Legend:
[1] = Plasma stability profiling Method #1 (MALDI-TOF, 35% plasma), rat plasma; assay type: in vitro ADME; details: method #1
Method: A rapid plasma stability profiling assay was developed that employed mass spectrometric detection (MALDI-TOF, Voyager DE, Applied Biosystems) of the parent mass, until the time when the parent peptide mass was no longer observable. Specifically, 200 uM of peptide was incubated in the presence of 35% rat or human plasma (Sera labs, using citrate as anticoagulant) at 37 deg C., which was supplemented with 1×PBS (derived from a 10×PBS Stock, Sigma). At various time points (i.e. t=0, 3, 24 hrs, henceafter daily up to 10 days), 2 uL of sample was added to 18 uL of 30 mM ammonium bicarbonate in a 1:1 mixture of acetonitrile:H2O. Samples were frozen at −80 deg C. until the time of analysis. For mass spectrometric analysis that determines the approximate detection window of the peptide, the acetonitrile:H2O-diluted sample of a given time point was spotted directly (0.7 uL) onto the MALDI plate. Matrix (alpha-cyanocinnamic acid, Sigma, prepared as a saturated solution in 1:1 acetonitrile:water containing 0.1% trifluoroacetic acid) was layered over the sample (1 uL). At a similar laser intensity setting on the MALDI TOF, the time could then be determined until parent peptide was no longer detectable. It should be noted that this is a qualitative assay serves to detect relative changes in plasma stability.

human plasma Kallikrein = target: T1, human plasma Kallikrein (Homo sapiens, UniProt P03952); assay: Functional enzyme inhibition assay with fluorogenic substrate Z-PheArg-AMC, human plasma Kallikrein; assay type: biochemical; details: for F (Kivar/KiWT): ratio of Ki to wild type
T1 construct: purchased Stratech, UK
Method: Functional enzyme assays were conducted in 10 mM Tris HCl, 150 mM NaCl, 10 mM MgCl2, 1 mM CaCl2) and 1 mg/mL BSA (all Sigma UK) pH7.4 at 25° C. in solid black 96 well plates. Briefly 26.5 pM human plasma Kallikrein (purchased from Stratech, UK) or 500 pM rat plasma Kallikrein (expressed and purified in house) were incubated in the absence or presence of increasing concentrations of test peptide for 15 minutes before addition of the fluorogenic substrate Z-PheArg-AMC (Enzo Lifesciences UK) to a final assay concentration of 100 μM in 4% DMSO. Release of AMC was measured using a Pherastar FS (BMG Labtech), excitation 360 nm, emission 460 nm. The rate of the linear phase of the reaction, typically 5 to 45 minutes, was calculated in MARS data analysis software (BMG labtech). The rate was then used to calculate the IC50 and Ki in Prism (GraphPad). A four parameter inhibition non-linear regression equation was used to calculate the IC50.
Peptides were dissolved as the TFA-salts in their powder form, and stock solutions were usually prepared in water. All solutions were centrifuged and filtered ([…] syringe filters) prior absorption measurement at 280 nm. […] For peptides containing non-natural amino acids with suspected chromophoric properties (i.e. NorHar, 4PhenylPro, 3Pal, 4Pal, Tic, 4GuanPhe, 4,4-BPAI, 3,3-DPA, 1NAI, 2NAI, 4BenzylPro, Ind) concentrations were determined by weighing the powder and dissolving the peptide in a defined quantity of water.

[2] = Table 24b, residue 7 modifications, read-out: Ki
[3] = Table 24a, residue 6 modification in the context of Ac-(06-34-18) Phe2 Tyr4, read-out: Ki (nM) Ac-(06-34-18) Phe2 Tyr4

T1 sequence (P03952 20-638): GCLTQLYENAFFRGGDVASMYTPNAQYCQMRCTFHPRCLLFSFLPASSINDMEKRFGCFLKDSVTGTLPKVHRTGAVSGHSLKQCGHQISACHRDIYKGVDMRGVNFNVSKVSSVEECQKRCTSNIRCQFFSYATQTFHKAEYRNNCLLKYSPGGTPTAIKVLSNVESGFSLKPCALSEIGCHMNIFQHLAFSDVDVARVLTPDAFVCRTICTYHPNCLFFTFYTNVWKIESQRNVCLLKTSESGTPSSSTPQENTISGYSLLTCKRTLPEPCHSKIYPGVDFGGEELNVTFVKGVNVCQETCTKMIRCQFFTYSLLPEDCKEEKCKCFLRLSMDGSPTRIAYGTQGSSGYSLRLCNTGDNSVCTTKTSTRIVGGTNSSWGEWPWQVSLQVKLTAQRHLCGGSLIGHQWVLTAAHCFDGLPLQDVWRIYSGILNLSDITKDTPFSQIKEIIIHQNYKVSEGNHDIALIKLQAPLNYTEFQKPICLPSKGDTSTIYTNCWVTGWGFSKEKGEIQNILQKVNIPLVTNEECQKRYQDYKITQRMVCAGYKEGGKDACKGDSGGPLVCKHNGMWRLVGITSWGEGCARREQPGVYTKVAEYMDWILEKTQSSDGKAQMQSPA

CC(=O)N[C@H]1CSCc2cc3cc(c2)CSC[C@H](NC(=O)[C@H](CCCNC(=N)N)NC(=O)[C@H](C)NC(=O)[C@@H]2C[C@@H](F)CN2C(=O)[C@H](Cc2c[nH]c4ccccc24)NC(=O)[C@H](CO)NC1=O)C(=O)N[C@@H](CC(C)C)C(=O)N[C@@H](Cc1c[nH]cn1)C(=O)N[C@@H](CCC(N)=O)C(=O)N[C@@H](CC(=O)O)C(=O)N[C@@H](CC(C)C)C(=O)N[C@H](C(N)=O)CSC3 [Ac-(06-34-18) 4FluoPro3] (Ac-CSW[Pro(trans-4-F)]ARCLHQDLC-NH2; linker 1-7-13 via TBMB)
Observable in rat plasma, for days ([1]; Table 13): 2 days

CC(=O)N[C@H]1CSCc2cc3cc(c2)CSC[C@H](NC(=O)[C@H](CCCNC(=N)N)NC(=O)[C@H](Cc2ccc(O)cc2)NC(=O)[C@@H]2CCCN2C(=O)[C@H](Cc2c[nH]c4ccccc24)NC(=O)[C@H](CO)NC1=O)C(=O)N[C@@H](CC(C)C)C(=O)N[C@@H](Cc1c[nH]cn1)C(=O)N[C@@H](CCC(N)=O)C(=O)N[C@@H](CC(=O)O)C(=O)N[C@@H](CC(C)C)C(=O)N[C@H](C(N)=O)CSC3 [Ac-(06-34-18) WPYR] (Ac-CSWPYRCLHQDLC-NH2; linker 1-7-13 via TBMB)
Observable in rat plasma, for days ([1]; Table 21): 2 days

CC(=O)N[C@H]1CSCc2cc3cc(c2)CSC[C@H](NC(=O)[C@H](CCCNC(=N)N)NC(=O)[C@H](C)NC(=O)[C@@H]2CCCN2C(=O)[C@H](Cc2ccncc2)NC(=O)[C@H](CO)NC1=O)C(=O)N[C@@H](CC(C)C)C(=O)N[C@@H](Cc1c[nH]cn1)C(=O)N[C@@H](CCC(N)=O)C(=O)N[C@@H](CC(=O)O)C(=O)N[C@@H](CC(C)C)C(=O)N[C@H](C(N)=O)CSC3 [Ac-(06-34-18) 4Pal2] (Ac-CS[4Pal]PARCLHQDLC-NH2; linker 1-7-13 via TBMB)
Observable in rat plasma, for days ([1]; Table 12): 2 days

CC(=O)N[C@H]1CSCc2cc3cc(c2)CSC[C@H](NC(=O)[C@H](CCCNC(=N)N)NC(=O)[C@H](C)NC(=O)[C@@H]2CCCN2C(=O)[C@H](Cc2cccc4ccccc24)NC(=O)[C@H](CO)NC1=O)C(=O)N[C@@H](CC(C)C)C(=O)N[C@@H](Cc1c[nH]cn1)C(=O)N[C@@H](CCC(N)=O)C(=O)N[C@@H](CC(=O)O)C(=O)N[C@@H](CC(C)C)C(=O)N[C@H](C(N)=O)CSC3 [Ac-(06-34-18) 1NAL2] (Ac-CS[1Nal]PARCLHQDLC-NH2; linker 1-7-13 via TBMB)
Observable in rat plasma, for days ([1]; Table 12): 2 days

CC(=O)N[C@H]1CSCc2cc3cc(c2)CSC[C@H](NC(=O)[C@H](CCCNC(=N)N)NC(=O)[C@H](Cc2ccc(O)cc2)NC(=O)[C@@H]2CCCN2C(=O)[C@H](Cc2ccccc2)NC(=O)[C@H](CO)NC1=O)C(=O)N[C@@H](CC(C)C)C(=O)N[C@@H](CNC(=N)N)C(=O)N[C@@H](CCC(N)=O)C(=O)N[C@@H](CC(=O)O)C(=O)N[C@@H](CC(C)C)C(=O)N[C@H](C(N)=O)CSC3 [Ac-(06-34-18) Phe2 Tyr4 Agp7] (Ac-CSFPYRCL[Agp]QDLC-NH2; linker 1-7-13 via TBMB)
Ki (human plasma Kallikrein; [2]): 672 nM
F (Kivar/KiWT) (human plasma Kallikrein; Table 24b): 1599

CC(=O)N[C@H]1CSCc2cc3cc(c2)CSC[C@H](NC(=O)[C@H](CCCNC(=N)N)NC(=O)[C@@H](C)NC(=O)[C@@H]2CCCN2C(=O)[C@H](Cc2c[nH]c4ccccc24)NC(=O)[C@H](CO)NC1=O)C(=O)N[C@@H](CC(C)C)C(=O)N[C@@H](Cc1c[nH]cn1)C(=O)N[C@@H](CCC(N)=O)C(=O)N[C@@H](CC(=O)O)C(=O)N[C@@H](CC(C)C)C(=O)N[C@H](C(N)=O)CSC3 [Ac-(06-34-18) D-Ala4]
reduction in potency/affinity compared to wildtype (human plasma Kallikrein): 7000 fold

CC(=O)N[C@H]1CSCc2cc3cc(c2)CSC[C@H](NC(=O)[C@H](CCCNC(=N)N)NC(=O)[C@H](C)NC(=O)[C@@H]2CCCN2C(=O)[C@H](Cc2c[nH]c4ccccc24)NC(=O)[C@H](CO)NC1=O)C(=O)N[C@@H](CC(C)C)C(=O)N[C@@H](Cc1c[nH]cn1)C(=O)N[C@H](C)C(=O)N[C@@H](CC(=O)O)C(=O)N[C@@H](CC(C)C)C(=O)N[C@H](C(N)=O)CSC3 [Ac-(06-34-18) D-Ala8] (Ac-CSWPARCLH[dA]DLC-NH2; linker 1-7-13 via TBMB)
Ki (human plasma Kallikrein; Table 3c, D-Alanine scan in Loop2, read-out: Ki): 11.7 nM
F (Kivar/KiWT) (human plasma Kallikrein; Table 3c): 28

CC(=O)N[C@H]1CSCc2cc3cc(c2)CSC[C@H](NC(=O)[C@H](CCCNC(=N)N)NC(=O)[C@H](C)NC(=O)[C@@H]2CCCN2C(=O)[C@H](Cc2c[nH]c4ccccc24)NC(=O)[C@H](CO)NC1=O)C(=O)N[C@@H](C(C)(C)C)C(=O)N[C@@H](Cc1c[nH]cn1)C(=O)N[C@@H](CCC(N)=O)C(=O)N[C@@H](CC(=O)O)C(=O)N[C@@H](CC(C)C)C(=O)N[C@H](C(N)=O)CSC3 [Ac-(06-34-18) tBuGly6] (Ac-CSWPARC[Tle]HQDLC-NH2; linker 1-7-13 via TBMB)
Ki (human plasma Kallikrein; Table 24a, residue 6 modification in the context of Ac-(06-34-18), read-out: Ki (nM) Ac-(06-34-18)): 0.49 nM

CC(=O)N[C@H]1CSCc2cc3cc(c2)CSC[C@H](NC(=O)[C@H](CCCNC(=N)N)NC(=O)[C@H](Cc2ccc(O)cc2)NC(=O)[C@@H]2CCCN2C(=O)[C@H](Cc2ccccc2)NC(=O)[C@H](CO)NC1=O)C(=O)N[C@@H](CC(C)C)C(=O)N[C@@H]([C@@H](C)O)C(=O)N[C@@H]([C@@H](C)O)C(=O)N[C@@H](CCC(=O)O)C(=O)N[C@@H](CC(C)C)C(=O)N[C@H](C(N)=O)CSC3 [Ac-(06-34-18) Phe2 Tyr4 Thr7 Thr8 Glu9] (Ac-CSFPYRCLTTELC-NH2; linker 1-7-13 via TBMB)
F (Kivar/KiWT) (human plasma Kallikrein; Table 24c): 193

CC(=O)N[C@H]1CSCc2cc3cc(c2)CSC[C@H](NC(=O)[C@H](CCCNC(=N)N)NC(=O)[C@H](Cc2ccc(O)cc2)NC(=O)[C@@H]2CCCN2C(=O)[C@H](Cc2ccccc2)NC(=O)[C@H](CO)NC1=O)C(=O)N[C@@H](CC(C)C)C(=O)N[C@@H](Cc1c[nH]cn1)C(=O)N[C@@H](CC(=O)O)C(=O)N[C@@H](CC(=O)O)C(=O)N[C@@H](CC(C)C)C(=O)N[C@H](C(N)=O)CSC3 [Ac-(06-34-18) Phe2 Tyr4 Asp8] (Ac-CSFPYRCLHDDLC-NH2; linker 1-7-13 via TBMB)
Ki (human plasma Kallikrein; Table 24c, residue 8 modifications, read-out: Ki): 3.83 nM
F (Kivar/KiWT) (human plasma Kallikrein; Table 24c): 9

CC[C@H](C)[C@@H]1NC(=O)[C@@H]2CSCc3cc(cc(c3)CSC[C@H](NC(C)=O)C(=O)N[C@@H](CO)C(=O)N[C@@H](Cc3ccccc3)C(=O)N3CCC[C@H]3C(=O)N[C@@H](Cc3ccc(O)cc3)C(=O)N[C@@H](CCCNC(=N)N)C(=O)N2)CSC[C@@H](C(N)=O)NC(=O)[C@H](CC(C)C)NC(=O)[C@H](CC(=O)O)NC(=O)[C@H](CCC(N)=O)NC(=O)[C@H](Cc2c[nH]cn2)NC1=O [Ac-(06-34-18) Phe2 Tyr4 Ile6] (Ac-CSFPYRCIHQDLC-NH2; linker 1-7-13 via TBMB)
Ki (human plasma Kallikrein; [3]): 1.46 nM

CC(=O)N[C@H]1CSCc2cc3cc(c2)CSC[C@H](NC(=O)[C@H](CCCNC(=N)N)NC(=O)[C@H](Cc2ccc(O)cc2)NC(=O)[C@@H]2CCCN2C(=O)[C@H](Cc2ccccc2)NC(=O)[C@H](CO)NC1=O)C(=O)N[C@@H](Cc1ccccc1)C(=O)N[C@@H](Cc1c[nH]cn1)C(=O)N[C@@H](CCC(N)=O)C(=O)N[C@@H](CC(=O)O)C(=O)N[C@@H](CC(C)C)C(=O)N[C@H](C(N)=O)CSC3 [Ac-(06-34-18) Phe2 Tyr4 Phe6] (Ac-CSFPYRCFHQDLC-NH2; linker 1-7-13 via TBMB)
Ki (human plasma Kallikrein; [3]): 14.9 nM

CC(=O)N[C@H]1CSCc2cc3cc(c2)CSC[C@H](NC(=O)[C@H](CCCNC(=N)N)NC(=O)[C@H](Cc2ccc(O)cc2)NC(=O)[C@@H]2CCCN2C(=O)[C@H](Cc2ccccc2)NC(=O)[C@H](CO)NC1=O)C(=O)N[C@@H](CC(C)C)C(=O)N[C@@H](Cc1cn(C)cn1)C(=O)N[C@@H](CCC(N)=O)C(=O)N[C@@H](CC(=O)O)C(=O)N[C@@H](CC(C)C)C(=O)N[C@H](C(N)=O)CSC3 [Ac-(06-34-18) Phe2 Tyr4 His1Me7] (Ac-CSFPYRCL[His(τ-Me)]QDLC-NH2; linker 1-7-13 via TBMB)
Ki (human plasma Kallikrein; [2]): 10 nM
F (Kivar/KiWT) (human plasma Kallikrein; Table 24b): 23
